From patent publication US9481667B2, “Salts and solid forms of isoquinolinones and composition comprising and methods of using the same” (Infinity Pharmaceuticals, Inc., priority 2013, dated 2016)
Converted amounts (≈) assume the structure as drawn. Counter-ions that a name gives are not always drawn.

Tests used:
Type in all cases: physicochemical
[1] = Thermodynamic aqueous solubility
[2] = Storage at 40° C./75% RH (solid-state stability); settings: for Storage 40° C./75% RH for 1 week: HPLC Purity / Storage 40° C./75% RH for 1 week: XRPD (D8): 0.5 g scale-up salts; for Stability on storage at 40° C./75% RH: 1 week, solid form by XRPD
Experimental: The crystalline solids were filtered, dried at ambient conditions, and stored at 40° C./75% RH for 1 week and analyzed by ^1H NMR/IC.
Samples from the screen using amorphous free base Compound 1 were analysed by ^1H-NMR and DSC, and re-analysis by XRPD was also carried out after drying at 50° C./vacuum and storage at 40° C./75% RH (the same sample was dried and stored at elevated humidity).

[3] = Dissolution; settings: in 15 min at pH 1.2
Experimental: The dissolution rate for the hydrate was about 80% in 15 min at pH 1.2 and about 20% in 60 min at pH 2.5. The dissolution rate of the bis-sulfuric acid salt was 100% in 15 min at both pH 1.2 and pH 2.5.

[4] = 2-Week comparative stability studies; settings: 2 weeks; 5° C. (closed); ambient (closed); ambient (closed-exposed to light); ambient (open); 60° C. (closed); RT/75% RH (open); 40° C./75% RH (open)
Experimental: (closed); (ii) ambient (closed); (iii) ambient (closed-exposed to light); (iv) ambient (open); (v) 60° C. (closed); (vi) RT/75% RH (open); and (vii) 40° C./75% RH (open).

[5] = Polymorph screen: maturation (temperature cycling RT/50° C.) in solvents
Experimental: One of 21 solvents was added to each vial in a number of aliquots (up to 30 volumes), with shaking. All the samples were then placed under maturation between RT to 50° C. (4 hours at each temperature) for 3 days. After maturation the samples were analysed by XRPD. Clear solutions were cooled to −20° C. (freezer). If no precipitation occurred samples were evaporated at RT.
Samples were placed under maturation between RT-50° C. (4 hours cycle) for 3 days. After maturation the samples were analyzed by XRPD. Clear solutions were then cooled to −20° C. (freezer). If no precipitation occurred, samples were evaporated at RT.
Bis-Sulfuric acid salt Form 1 of Compound 1 (ca. 35 mg) was weighed into vials. The corresponding solvents and solvent mixtures were added in portions of (a total of) 5, 10, 20, and 30 volumes at 50° C., with shaking, aiming for clear solutions. After each addition, the vials were allowed to shake for 20 minutes, after which observations were made. Solutions were allowed to evaporate, whereas slurries were set for 8 hour temperature cycling maturation, between RT and 50° C., for 5 days.
The oils obtained by solvent evaporation were used for the maturation screen. Anhydrous solvents (5 volumes; 100 μL) were used in order to minimise the amount of water present. Any solutions were allowed to slowly evaporate, whereas slurries were set for 8 hour temperature cycling maturation, between RT and 50° C. After 24 hours, most oils had not mixed with the solvents, and these were scratched with a spatula, producing slurries. These were matured for a further 24 hours before performing XRPD analysis.
Amorphous free base Compound 1 (ca. 25 mg) was weighed into vials. The selected solvents and solvent mixtures (5 to 20 volumes) were added with stirring. Any solutions were allowed to slowly evaporate, whereas slurries were set for 8 hour temperature cycling maturation, between RT and 50° C., for 2 days.
Crystals were ground in order to analyse them by XRPD. Suspensions were set for temperature cycling for a total of five days after which time XRPD analysis was carried out. […] Similar to the screen in Example 20, these XRPD patterns show slight differences (FIG. 37). However, solids from both screens obtained from the same solvent show a matching XRPD pattern, also supporting that this is a series of isostructural solvates. […]

[6] = Gravimetric vapour sorption (GVS); settings: for XRPD post GVS (C2): 0.5 g scale-up salts; for GVS Single cycle: hygroscopicity, 0-90% RH; for GVS: moisture content reached on uptake at 40-50% RH: remains stable on sorption up to 90% RH and on desorption down to 10% RH
Experimental: Sorption isotherms were obtained using a Hiden IGASorp moisture sorption analyser, controlled by CFRSorp software. The sample temperature was maintained at 25° C. by a Huber re-circulating water bath. The humidity was controlled by mixing streams of dry and wet nitrogen, with a total flow rate of 250 ml/min. The relative humidity (RH) was measured by a calibrated Vaisala RH probe (dynamic range of 0-95% RH), located near the sample. The weight change, (mass relaxation) of the sample as a function of % RH was constantly monitored by the microbalance (accuracy ±0.001 mg). Typically 10-20 mg of sample was placed in a tared mesh stainless steel basket under ambient conditions. The sample was loaded and unloaded at 40% RH and 25° C. (typical room conditions). A moisture sorption isotherm was performed as outlined below (2 scans giving 1 complete cycle). The standard isotherm was performed at 25° C. at 10% RH intervals over a 0-90% RH range.
The software uses a least squares minimisation procedure together with a model of the mass relaxation, to predict an asymptotic value. The measured mass relaxation value must be within 5% of that predicted by the software, before the next % RH value is selected. The minimum equilibration time was set to 1 hour and the maximum to 4 hours. The sample was recovered after completion of the isotherm and re-analysed by XRPD.

[7] = Density and flowability (Hausner ratio, Carr index)
From the text: The Hausner ratio and the Carr index are correlated to the flowability of a powder or granular material. […] The flowability of both salts are acceptable for manufacturing.

[8] = Storage at 25° C./93% RH (solid-state stability); settings: for Storage 25° C./93% RH for 1 week: HPLC Purity / Storage 25° C./93% RH for 1 week: XRPD (D8): 0.5 g scale-up salts; for Stability on storage at 25° C./93% RH: 1 week, solid form by XRPD
[9] = Stability of Hydrate Form 2 of free base: maturation in water or acetic acid:water; settings: 40 hours
[10] = Solubility assessment using free base Hydrate Form 2
Experimental: The best solvent systems (clear solutions) were methanol:anisole 1:1 and DMSO (10 volumes, at RT), dioxane (10 volumes, 50° C.), chloroform (20 volumes, RT). […]

[11] = Stability of Hydrate Form 2 of free base: maturation in water or acetic acid:water; settings: 40 hours; remark: listed apart in the source
Experimental: Both solids obtained from maturation at 25° C.

[12] = listed as Compound 1 Free Base Form 2

For `COc1cc(-c2cccc3cc([C@H](C)Nc4nc(N)ncc4C#N)n(-c4ccccc4)c(=O)c23)ccn1` [Form 1 of the maleic acid salt of Compound 1] [(S)-2-amino-4-((1-(8-(2-methoxypyridin-4-yl)-1-oxo-2-phenyl-1,2-dihydroisoquinolin-3-yl)ethyl)amino)pyrimidine-5-carbonitrile], the “XRPD (C2) post Aqueous solubility” value ([1]; solid after thermodynamic aqueous solubility) was “FB pattern 2”, the “Storage 40° C./75% RH for 1 week: HPLC Purity” value [2] was “HPLC Purity: 99.8% Peak Area” and the “Storage 40° C./75% RH for 1 week: XRPD (D8)” value [2] was “XRPD (D8): Unchanged”. For the same compound, the “Stability on storage at 40° C./75% RH” value [2] was “stable”, the “Stability on storage at 40° C./75% RH” value ([2]; listed as mono-maleic acid salt) was “stable” and the dissolution rate ([3]; listed as Form 1 of mono-maleic acid salt) was 100%. For the same compound, the “Change of water content (KF)” value [4] was “No significant change of water content”, the “Salt stability on maturation in solvents” value ([5]; RT to 50° C., 3 days, Ethanol, 2-Propanol, 1-Propanol, Acetone, THF, 2-Propanol/Water (90/10 v/v), EtOH/Water (90/10 v/v), Acetic acid/Water (25/75 v/v): free base recrystallized) was “tendency to dissociate” and the “XRPD post GVS (C2)” value [6] was “Unchanged”. For the same compound, the “GVS Single cycle” value ([6]; 25° C.) was “Slightly hygroscopic”, the “Flowability compared to the hydrate” value [7] was “improved flowability” and the “Storage 25° C./93% RH for 1 week: HPLC Purity” value [8] was “HPLC Purity: 99.8% Peak Area”. The “Storage 25° C./93% RH for 1 week: XRPD (D8)” value [8] was “XRPD (D8): Unchanged”.

In the case of `COc1cc(-c2cccc3cc([C@H](C)Nc4nc(N)ncc4C#N)n(-c4ccccc4)c(=O)c23)ccn1` [Form 1 of the sulfuric acid salt of Compound 1] [(S)-2-amino-4-((1-(8-(2-methoxypyridin-4-yl)-1-oxo-2-phenyl-1,2-dihydroisoquinolin-3-yl)ethyl)amino)pyrimidine-5-carbonitrile], the “Storage 40° C./75% RH for 1 week: HPLC Purity” value [2] is reported as “HPLC Purity: Unchanged”, the “Storage 40° C./75% RH for 1 week: XRPD (D8)” value [2] is reported as “XRPD (D8): Unchanged” and the “Stability on storage at 40° C./75% RH” value [2] is reported as “stable”. For the same compound, the “Stability on storage at 40° C./75% RH” value ([2]; listed as bis-sulfuric acid salts) was “stable”, the dissolution rate ([3]; listed as Form 1 of bis-sulfuric acid salt monohydrate) was 100% and the “Change of water content (KF)” value [4] was “No significant change of water content”. The “Solid form after maturation of slurries” value ([5]; slurries in 30 volumes of solvent, RT/50° C. cycling, five days (all experiments other than acetic acid/water, methanol, ethanol/water)) was “did not show any changes”, the “XRPD post GVS (C2)” value [6] was “Unchanged” and the “GVS Single cycle” value ([6]; 25° C.) was “Slightly hygroscopic”. The “Flowability compared to the hydrate” value [7] was “improved flowability”, the “Storage 25° C./93% RH for 1 week: HPLC Purity” value [8] was “HPLC Purity: Unchanged” and the “Storage 25° C./93% RH for 1 week: XRPD (D8)” value [8] was “XRPD (D8): Unchanged”.

In the case of `COc1cc(-c2cccc3cc([C@H](C)Nc4nc(N)ncc4C#N)n(-c4ccccc4)c(=O)c23)ccn1` [Form 2 of the free base of Compound 1, (S)-2-amino-4-((1-(8-(2-methoxypyridin-4-yl)-1-oxo-2-phenyl-1,2-dihydroisoquinolin-3-yl)ethyl)amino)pyrimidine-5-carbonitrile], the solubility thermodynamic ([1]; aqueous, water, thermodynamic from solid, at pH 6.47) is reported as 5 µg/mL (≈ 10.2 µM), the “Stability on storage at 40° C./75% RH” value [2] is reported as “stable” and the “Stability on storage at 40° C./75% RH” value [2, 12] is reported as “Very slight changes after 1 week”. For the same compound, the “Stability on storage at 40° C./75% RH” value ([2]; listed as Free base Form 2) was “mainly the same pattern with a few differences”, the dissolution rate ([3]; listed as Form 2 of free base hydrate) was “about 80%” and the “Solid form (XRPD) after maturation” value ([9]; acetic acid:water 1:3, 90° C.) was “some evidence of the acetic acid solvate Form 6 mixed with a majority of Form 2”. For the same compound, the “Solid form (XRPD) after maturation” value ([9]; pure water, 90° C., listed as Hydrate Form 2 of free base of Compound 1) was “Form 2”, the “Change of water content (KF)” value [4] was “No significant change of water content” and the “solvent volumes giving a clear solution” value ([10]; 2-methyltetrahydrofuran) was 50 volumes. The “solvent volumes giving a clear solution” value ([10]; DCM) was 100 volumes, the “solvent volumes giving a clear solution” value ([10]; DCM:methanol 1:1) was 100 volumes and the “solvent volumes giving a clear solution” value ([10]; DME) was 100 volumes. The “solvent volumes giving a clear solution” value ([10]; DMSO, at RT) was 10 volumes, the “solvent volumes giving a clear solution” value ([10]; THF) was 100 volumes and the “solvent volumes giving a clear solution” value ([10]; THF:5% water) was 50 volumes. For the same compound, the “solvent volumes giving a clear solution” value ([10]; acetonitrile/5% water) was 100 volumes, the “solvent volumes giving a clear solution” value ([10]; chloroform, RT) was 20 volumes and the “solvent volumes giving a clear solution” value ([10]; dioxane, 50° C.) was 10 volumes. The “solvent volumes giving a clear solution” value ([10]; ethanol:anisole) was 50 volumes, the “solvent volumes giving a clear solution” value ([10]; methanol) was 100 volumes and the “solvent volumes giving a clear solution” value ([10]; methanol:anisole 1:1, at RT) was 10 volumes. For the same compound, the “Solid form (XRPD) after maturation” value ([11]; acetic acid:water 1:3, 25° C.) was “stable”, the “Solid form (XRPD) after maturation” value ([11]; acetic acid:water 1:3, 25° C., listed as Hydrate Form 2 of free base of Compound 1) was “unchanged Form 2” and the “Solid form (XRPD) after maturation” value ([11]; pure water, 25° C.) was “stable”. For the same compound, the “Solid form (XRPD) after maturation” value ([11]; pure water, 25° C., listed as Hydrate Form 2 of free base of Compound 1) was “unchanged Form 2”, the “GVS: moisture uptake on loading between 40-50% RH” value [6] was 1 % w/w and the “GVS: moisture on loading” value ([6]; loaded at 40% RH, 25° C., listed as Compound 1 Free Base Form 2) was 4.7% w/w moisture on loading. Immediate. For the same compound, the “GVS: moisture content reached on uptake at 40-50% RH” value [6, 12] was “moisture uptake (40-50% RH up to 5.7% w/w)”, the “GVS: moisture content reached on uptake at 40-50% RH” value ([6]; listed as Free base Form 2) was 5.7 % w/w and the “Stability on storage at 25° C./93% RH” value [8] was “stable”. The “Stability on storage at 25° C./93% RH” value [8, 12] was “Very slight changes after 1 week” and the “Stability on storage at 25° C./93% RH” value ([8]; listed as Free base Form 2) was “mainly the same pattern with a few differences”.
